What was measured:
human ETB receptors = biological target: T1, human ETB receptors (Homo sapiens, UniProt P24530); assay: In vitro antagonistic effect on human ETB receptors (Ca2+ fluorescence, transfected CHO cells); type: cell-based; conditions: 0.3 nM endothelin-1
T1 construct: host or cells: CHO cells
T1 sequence (P24530 27-442): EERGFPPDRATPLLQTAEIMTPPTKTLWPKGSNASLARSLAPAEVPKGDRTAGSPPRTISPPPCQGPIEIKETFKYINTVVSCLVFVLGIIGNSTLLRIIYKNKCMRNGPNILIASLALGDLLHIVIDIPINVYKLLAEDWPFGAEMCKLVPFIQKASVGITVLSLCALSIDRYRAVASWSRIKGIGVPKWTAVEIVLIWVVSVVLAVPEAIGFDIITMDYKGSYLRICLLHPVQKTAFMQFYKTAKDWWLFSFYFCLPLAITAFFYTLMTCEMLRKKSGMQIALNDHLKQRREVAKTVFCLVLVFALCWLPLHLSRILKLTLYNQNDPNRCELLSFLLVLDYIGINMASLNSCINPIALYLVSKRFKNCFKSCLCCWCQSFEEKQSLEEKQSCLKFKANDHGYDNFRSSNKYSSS
Method: The antagonist activities of the compounds on human ETB receptors expressed in transfected CHO cells were assessed by measuring the effects of the compounds on changes in cytoplasmic Ca^2+ ion signaling induced by an agonist of human ETB receptor using a fluorescence assay. The functional activity of the ETB receptor antagonistic effect was tested at Eurofins-Cerep SA according to current standard operating procedures.
• 1. Cells were suspended in DMEM buffer (Invitrogen) and then distributed at a density of 3×10^4 cells/well in 384 plates (100 μL/well). • 2. HBSS buffer (Invitrogen) supplemented with 20 mM Hepes (Invitrogen) (pH 7.4) was mixed with the fluorescent probe (Fluo4 Direct, Invitrogen) and added to each well. Equilibrated with the cells for 60 minutes at 37° C. and then for 15 minutes at 22° C. • 3. The assay plate was placed in a microplate reader (CellLux, PerkinElmer). DMSO solution of the test compound and the positive control or HBSS buffer in appropriate concentration was added. […] Then the change in fluorescence intensity was measured. The fluorescence intensity is in proportion to the Ca^2+ ion concentration of the free cytosol. • 4. […] The standard positive control was BQ-788 and several concentrations were tested in each experiment and the data was analyzed using Prism to produce a concentration-response curve to calculate the IC50 values of the compounds. […]

human ETA receptors = biological target: T2, human ETA receptors (Homo sapiens, UniProt P25101); assay: In vitro antagonistic effect on human ETA receptors (Ca2+ fluorescence, SK-N-MC cells); type: cell-based
T2 construct: endogenously expressed human ETA receptors in SK-N-MC cells; host or cells: SK-N-MC cells
T2 sequence (P25101 21-427): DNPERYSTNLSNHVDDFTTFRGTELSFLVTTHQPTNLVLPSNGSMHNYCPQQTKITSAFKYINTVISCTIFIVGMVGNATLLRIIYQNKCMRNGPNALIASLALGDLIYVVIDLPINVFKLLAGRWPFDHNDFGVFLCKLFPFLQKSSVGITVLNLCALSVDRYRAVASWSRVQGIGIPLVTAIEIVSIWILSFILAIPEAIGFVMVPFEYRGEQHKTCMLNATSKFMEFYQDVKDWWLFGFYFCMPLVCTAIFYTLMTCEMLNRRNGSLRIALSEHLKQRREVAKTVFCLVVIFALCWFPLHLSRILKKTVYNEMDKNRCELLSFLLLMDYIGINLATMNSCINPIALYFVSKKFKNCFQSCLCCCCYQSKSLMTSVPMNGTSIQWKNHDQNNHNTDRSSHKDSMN
Method: The antagonistic activity of the compounds on endogenously expressed human ETA receptors in SK-N-MC cells was assessed by measuring the effects of the compounds on changes in cytoplasmic Ca^2+ ion signaling induced by an agonist of human ETA receptor using a fluorescence assay. The functional activity of the ETA receptor antagonistic effect was tested at Eurofins-Cerep SA according to current standard operating procedures.
• 1. Cells were suspended in Dulbecco's modified Eagle medium solution (DMEM, Invitrogen) supplemented with 1% FCSd and then distributed at a density of 5×10^4 cells/well in 384 plates (100 μL/well). • 2. Hank's Balanced Salt Solution (HBSS, Invitrogen) supplemented with 20 mM 4-(2-hydroxyethyl) piperazine-1-ethanesulfonic acid (Hepes, Invitrogen) (pH 7.4) was mixed with the fluorescent probe (Fluo4 NW, Invitrogen) and added to each well. Equilibrated with the cells for 60 minutes at 37° C. and then for 15 min at 22° C. • 3. The assay plate was placed in a microplate reader (CellLux, PerkinElmer). DMSO solution of the test compound and the positive control in appropriate concentration or HBSS buffer was added. After 5 minutes, 1 nM endothelin-1 or HBSS buffer (basal control) was added. Then the change in fluorescence intensity was measured. The fluorescence intensity is in proportion to the Ca^2+ ion concentration of the free cytosol. • 4. […] The standard positive control was BQ-123 and several concentrations were tested in each experiment and the data was analyzed using Prism to produce a concentration-response curve to calculate the IC50 values of the compounds. • 6.

[1] = Pharmacokinetic evaluation in Beagle dogs; type: in vivo; conditions: for Bioavailability F: 3 mg/kg
Method: Male Beagle dogs were used as the test animals in this study. The LC/MS/MS method was applied to quantify the plasma drug concentrations in Beagle dogs at different time points after administration of the test compound by intravenous injection or oral gavage to evaluate the pharmacokinetic profile of the test compound in Beagle dogs.
Beagle dogs (Male, 6-15 kg, above 6 months, Beijing Marshall Biotechnology Co.)
A clear solution of the test compound was administered to the Beagle dogs by intravenous injection (overnight fasting) or oral gavage (overnight fasting). At 0 h (before administration by intravenous injection) and at 0.0833, 0.25, 0.5, 1, 2, 4, 6, 8 and 24 h after administration by intravenous injection, about 500 μL of blood was collected from peripheral blood vessels into anticoagulation tubes supplemented with EDTA-K2 (Jiangsu Kangjian Medical Supplies Co., Ltd.). At 0 hours (before administration by oral gavage) and 0.25, 0.5, 1, 2, 4, 6, 8 and 24 hours after administration by oral gavage, about 500 μL of blood was collected from peripheral blood vessels into anticoagulation tubes supplemented with EDTA-K2. The mixture in the anticoagulation tube was vortexed thoroughly at 4° C. and the plasma was then centrifuged at 13,000 rpm for 10 minutes to obtain the plasma. Blood concentrations were determined by LC/MS/MS and the relevant pharmacokinetic parameters were calculated using WinNonlin™ Version 6.3 (Pharsight, Mountain View, CA) pharmacokinetics software with a non-compartmental model linear-log trapezoidal method.

| SMILES | IC50 (human ETB receptors) [µM] | In vitro antagonistic activity against the human ETA receptor (in words) (human ETA receptors) | Selectivity for ETA over ETB (human ETA receptors) | IC50 (human ETA receptors; SK-N-MC cells, 1 nM endothelin-1) [µM] | ETA/ETB Selectivity (human ETA receptors; table value) | Area under the drug concentration-time curve ([1]; intravenous injection 1 mg/kg) [µM·h] | Area under the drug concentration-time curve ([1]; oral 3 mg/kg) [µM·h] | Peak concentration ([1]; oral 3 mg/kg) [µM] | Peak time ([1]; oral 3 mg/kg) [h] | Bioavailability F ([1]; oral 3 mg/kg) [%] | Bioavailability F ([1]; oral 3 mg/kg, listed as compound of formula (I)) [%] |
| --- | --- | --- | --- | --- | --- | --- | --- | --- | --- | --- | --- |
| COCCNS(=O)(=O)Nc1ncnc(OCCOc2ncc(Br)cn2)c1-c1ccc2c(c1)OCO2 | 32 | very high | 20,000 fold | 0.0016 | 20000 | – | – | – | – | – | – |
| COCCNS(=O)(=O)Nc1ncnc(OCCOc2ncc(Br)cn2)c1-c1ccc2c(c1)OCO2 [Compound of formula (I)] | – | – | – | – | – | 7.56 | 33.40 | 12.75 | 0.38 | 147 | > 50 |

Source: patent US12297192B2, “Crystal form of pyrimidine sulfonamide compound and preparation method therefor” (WUXI BIOCITY BIOPHARMACEUTICS CO., LTD., priority 2019, dated 2025)
